Assay results as given in PMC11272821, “Mechanistic safety assessment via multi-omic characterisation of systemic pathway perturbations following in vivo MAT2A inhibition” (Archives of Toxicology, 2024).

Tested on: rat liver proteome
Test: Liver label-free quantitative proteomics
Assay type: in vivo
Details: liver protein
Protocol: Liver tissue were homogenized in PreOmics iST buffer (PreOmics) using a bead ruptor. […] Peptides were purified using PreOmics iST cartridges and vacuum-centrifuged to dryness. Peptides were subsequently reconstituted in 2 vol% ACN and 0.1 vol% formic acid for single-run LC–MS analysis. Peptides were analyzed using a Thermo EASY-nLC1200 coupled online to an Exploris 480 Mass Spectrometer equipped with a Nanospray Flex Ion Source integrated with a column oven (PRSO-V1, Sonation) and a FAIMS unit. Peptides were separated using a nonlinear gradient and analyzed by acquiring spectra through Data Independent Acquisition (DIA). Data was analyzed using Spectronaut V15.7.2 (Biognosys AG) direct DIA analysis using an isoform Rat database (UniProt downloaded 22.02.2021) consisting of 9,746 protein entries utilizing the Pulsar search engine. Analysis settings were maintained to factory settings and identification was set to 1% false discovery rate (FDR) for precursor and protein level. Additional information is provided in Supplementary M&M.
Data analysis was performed using R Statistical Software (version 4.3.0). Proteomics, transcriptomics and metabolomics expression changes were visualised using heatmaps showing log2 fold change relative to control. In the heatmaps missing values were highlighted in grey.
Proteomics Analysis. Liver tissue was placed in vials containing 1.4 mm zirconia beads and taken up in 500 µL of PreOmics iST buffer (PreOmics). In a cold room set to 4 °C, tissues were homogenized utilizing a bead Ruptor 12 by shaking for 30 seconds for a total of 5 times using ‘high’ setting. Lysate was normalized using BCA assay (Thermo Fisher Scientific), and subsequently incubated at 95 °C for 10 min for reduction, and alkylation of proteins. A total of 50 μg from each sample was subjected to enzymatic cleavage for 3 h by adding equal amounts of endoproteinase Lys-C and trypsin (ThermoFisher Scientific, # A40009) in a 1:50 (wt/wt) enzyme:protein ratio. De-salting and purification were performed according to the PreOmics iST protocol on a styrene divinylbenzene reversed-phase sulfonate sorbent. Purified peptides were vacuum-centrifuged to dryness and reconstituted in double-distilled water with 2 vol% ACN and 0.1 vol% formic acid (FA) for single-run LC-MS analysis.
Peptides were loaded onto a ReproSil-Pur 120 C18AQ 1.9 µm in-house packed to a 5 µm tip 75u ID × 360u × 50 cm column using Thermo EASY-nLC 1200 coupled online to an Exploris 480 Mass Spectrometer equipped with a Nanospray Flex Ion Source integrated with a column oven (PRSO-V1, Sonation) maintained at 50 °C. Peptides were separated using a nonlinear gradient: Mobile phase A was 0.1 vol% FA and 3 vol% acetonitrile (ACN) in water, Mobile phase B was 90 vol% ACN and 0.1 vol % FA. The gradient was operated at 250 nL/min flowing 3 vol% B for 3 min, 3 to 5 vol% B over 3 min, 5 to 17 vol % B over 120 min, 17 to 24 vol % B over 26 min, 24 to 30 vol% B over 14 min, 30 to 85 vol% B over 3 min.

Cn1cc2cc(-c3cc4[nH]nc(C5CC5)c4n(-c4ccc(OC(F)F)cc4)c3=O)ccc2n1 [AZ’9567]
Ncl Log2FC (3mg/kg): 0.6
Nob1 Log2FC (3mg/kg): 0.9
Orm1 Log2FC (3mg/kg): 1.1
Paics Log2FC (3mg/kg): 0.7
Pcyt1a Log2FC (3mg/kg): 0.7
Pklr.1 Log2FC (3mg/kg): -1
Prmt1 Log2FC (3mg/kg): 0.6
Pspc1 Log2FC (3mg/kg): 0.5
Ptprs Log2FC (3mg/kg): -0.9
Pum3 Log2FC (3mg/kg): 0.7
Rbm3 Log2FC (3mg/kg): 0.9
Rgn Log2FC (3mg/kg): -0.7
Rmdn1 Log2FC (3mg/kg): 0.6
S1pr1 Log2FC (3mg/kg): -0.7
Scd1 Log2FC (3mg/kg): -2.8
Sh3glb1 Log2FC (3mg/kg): 0.7
Sirt2 Log2FC (3mg/kg): 0.7
Sts Log2FC (3mg/kg): -0.7
Tat Log2FC (3mg/kg): -1.5
Tceanc2 Log2FC (3mg/kg): 1.2
Thg1l Log2FC (3mg/kg): 0.5
Tpmt Log2FC (3mg/kg): -1.3
Tspo Log2FC (3mg/kg): 1.7
Txnrd2 Log2FC (3mg/kg): -0.8
Ube2f Log2FC (3mg/kg): 0.7
Ugt2b1 Log2FC (3mg/kg): -1.6
Wdr45 Log2FC (3mg/kg): -0.8
Ythdc1 Log2FC (3mg/kg): 0.7
mvd Log2FC (3mg/kg): 0.7
A2m Log2FC (10mg/kg): 3.3
Abcb1 Log2FC (10mg/kg): 1.6
Abhd1 Log2FC (10mg/kg): -0.9
Acaca Log2FC (10mg/kg): -1.2
Acbd4 Log2FC (10mg/kg): -1.3
Acly Log2FC (10mg/kg): -0.6
Acsl1 Log2FC (10mg/kg): -0.7
Acsl3 Log2FC (10mg/kg): -0.6
Acsl5 Log2FC (10mg/kg): -0.6
Akap5 Log2FC (10mg/kg): -1.6
Aldh1a1 Log2FC (10mg/kg): 1.5
Aldh1a7 Log2FC (10mg/kg): 1.4
Aldh16a1 Log2FC (10mg/kg): -0.5
Alpl Log2FC (10mg/kg): 1.6
Als2 Log2FC (10mg/kg): -0.9
Anpep Log2FC (10mg/kg): 1.3
Aox1 Log2FC (10mg/kg): -1.3
Apeh Log2FC (10mg/kg): -0.7
Apoc1 Log2FC (10mg/kg): -0.9
Aqp8 Log2FC (10mg/kg): 0.9
Asns Log2FC (10mg/kg): 0.9
Baat Log2FC (10mg/kg): -1.1
Banf1 Log2FC (10mg/kg): 0.7
Bhmt2 Log2FC (10mg/kg): 1.3
Bhmt Log2FC (10mg/kg): 1.7
Brix1 Log2FC (10mg/kg): 0.9
Ca5a Log2FC (10mg/kg): 0.7
Carnmt1 Log2FC (10mg/kg): -1.5
Cbs Log2FC (10mg/kg): -3.1
Ccnd1 Log2FC (10mg/kg): 17.1
Cdh1 Log2FC (10mg/kg): 0.7
Cdo1 Log2FC (10mg/kg): -5.2
Ces2c Log2FC (10mg/kg): 1.2
Cfdp1 Log2FC (10mg/kg): 0.5
Chid1 Log2FC (10mg/kg): 1.0
Comt Log2FC (10mg/kg): -0.6
Coq4 Log2FC (10mg/kg): 0.6
Csad Log2FC (10mg/kg): -1.3
Ctbs Log2FC (10mg/kg): -0.7
Cyp2c23 Log2FC (10mg/kg): -1.1
Cyp4a10 Log2FC (10mg/kg): 0.7
Dbnl Log2FC (10mg/kg): 0.5
Dcakd Log2FC (10mg/kg): 1.3
Dkc1 Log2FC (10mg/kg): 0.6
Dmgdh Log2FC (10mg/kg): 0.5
Dohh Log2FC (10mg/kg): 0.9
Eif4ebp1 Log2FC (10mg/kg): 0.8
Enpep Log2FC (10mg/kg): -0.8
Fabp4 Log2FC (10mg/kg): 1.1
Fdft1 Log2FC (10mg/kg): 0.7
Fgr Log2FC (10mg/kg): 1.6
Gimd1 Log2FC (10mg/kg): -0.9
Gmpr Log2FC (10mg/kg): 0.7
Gnl3 Log2FC (10mg/kg): 0.9
Gnmt Log2FC (10mg/kg): 1.3
Gpcpd1 Log2FC (10mg/kg): 1.4
Gstm1 Log2FC (10mg/kg): -0.7
Gstm2 Log2FC (10mg/kg): -1.0
Gtpbp4 Log2FC (10mg/kg): 0.8
